Test: Color toner image: light fastness property (xenon light)
Format: physicochemical
Settings: xenon light 85,000 lux, 5 days
Experimental: As for each of the phthalocyanine compounds of the invention (compounds 101, 102, 103 and 107), 3 parts by weight of the compound and 100 parts by weight of a resin for toner [styrene-acrylic acid ester copolymer; trade name HIMER TB-1000F (manufactured by Sanyo Chemical Industries, Ltd.)] were mixed and ground in a ball mill. Then, the mixture was heated to 150° C. to be molten and mixed. After cooling, the mixture was coarsely crushed using a hammer mill, and then, finely pulverized by a pulverizer of an air jet system. The resulting particles were further classified, and 1 to 20 micro was selected, resulting in a toner. To 10 parts of the toner, 900 parts of carrier iron powder (trade name EFV250/400; manufactured by Nippon Iron Powder) was uniformly mixed, resulting in a developer. Similarly, each sample of the comparative coloring agents shown in Table-7 were prepared in the same manner, except that the dye was used in an amount of 3 parts by weight, and the pigment was used in an amount of 6 parts by weight. By the use of these developers, copying was carried out by means of a dry ordinary paper electrophotographic copier [trade name NP-5000; manufactured by CANON, Corp.].
Reflected images (images on paper) and transmitted images (OHP images) were formed on paper and OHP sheets, respectively, with a developer using a color toner containing the compounds of the invention in accordance with the foregoing image forming method, and the evaluation tests were conducted in the following manner. Incidentally, the amount of the toner deposited was evaluated in the range of 0.7±0.05 (mg/cm^2).
The light fastness property was evaluated in the following manner. The image density Ci immediately after recording was measured, and thereafter, the image was irradiated with xenon light (85,000 lux) by means of a weather meter (Atlas C. 165), for 5 days. Then, the image density Cf was measured again, and the coloring matter residual ratio ([…]) was determined from the difference in image density between before and after xenon light irradiation. The image density was measured by means of a reflection densitometer (X-Rite 310TR). In Table-7, the case where the coloring matter residual ratio was 90% or more is indicated with ∘; less than 90 to 80%, Δ; and less than 80%, x.
With `CNc1ccc(O)c2c1C(=O)c1c(O)ccc(NC)c1C2=O` [Comparative dye 5] the Light fastness property was “Δ (less than 90 to 80%, Δ)”. For C.I. Solvent Blue 70, the Light fastness property was “∘ (the case where the coloring matter residual ratio was 90% or more is indicated with ∘)”. In the case of C.I. Solvent Blue 38, the Light fastness property is reported as “∘ (the case where the coloring matter residual ratio was 90% or more is indicated with ∘)”. For `Cc1ccc(Nc2ccc(Nc3ccc(C)cc3)c3c2C(=O)c2c(Nc4ccc(C)cc4)ccc(Nc4ccc(C)cc4)c2C3=O)cc1` [Comparative dye 6], the Light fastness property was “Δ (less than 90 to 80%, Δ)”.

Reference: US7132012B2, “Phthalocyanine compound, ink, ink jet recording method and image forming method” (Fuji Photo Film Co., Ltd., priority 2004, dated 2006)
